Article PMC11205194 (Marine Drugs, 2024)

Test system: SARS-CoV-2 3CLpro
Conditions: pH 7; for Inhibition of free 3CL protease by synthesized peptides: SD

Compound | Inhibition of the 3CLpro control's enzymatic activity [%] | Inhibition of free 3CL protease by synthesized peptides [%]
COc1cccc2[nH]c(C(=O)N[C@@H](CC(C)C)C(=O)N[C@@H](C[C@@H]3CCNC3=O)C(=O)CO)cc12 [PF-00835231, reference compound] | 94.9 | 
VVGVVVY [PEP 1, Val-Val-Gly-Val-Val-Val-Tyr] |  | 9.3 ± 5.7
EVLEFFKYLE [PEP 7] |  | 7.6 ± 1.3
EVLEFFKYIE [PEP 5] |  | 0.01 ± 3.8
